How the values were obtained:
BaF3_EGFR d19/CS cells = assay: Biological Activity Assay D: BaF3 cell proliferation assay, EGFR exon 19 deletion/C797S (BaF3 d19/CS); format: cell-based; conditions: Ba/F3 EGFR; BaF3_EGFR d19/CS cells, ~72 hours, CellTiter-Glo; read-out: BaF3 d19/CS IC50
Ba/F3_EGFR WT cells = assay: Biological Activity Assay D: BaF3 cell proliferation assay, EGFR wild-type (BaF3 WT); format: cell-based; conditions: Ba/F3 EGFR; Ba/F3_EGFR WT cells, ~72 hours, CellTiter-Glo; read-out: BaF3 WT IC50
[1] = molecular target: recombinant human EGFR L858R/C797S double mutant protein (Homo sapiens (Human), UniProt P00533, C797S/L858R); assay: Biological Activity Assay B: biochemical assay against EGFR L858R/C797S protein (EGFR LR/CS)
How it was run: (§1)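 Compounds were tested as 16-point serial dilutions (final DMSO 2.5%) with a Phosphosens peptide sensor/ATP working solution (40 uM/4 mM). The signal was read kinetically over 90 cycles at 120 s intervals. IC50s came from 4-parameter fits of per-well slopes.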

[2] = molecular target: recombinant human EGFR exon 19 deletion/C797S double mutant protein (Homo sapiens (Human), UniProt P00533, C797S/DEL746-750); assay: Biological Activity Assay C: biochemical assay against EGFR exon 19 deletion/C797S protein (EGFR d19/CS)
How it was run: as §1

BaF3_EGFR LR/CS cells = assay: Biological Activity Assay D: BaF3 cell proliferation assay, EGFR L858R/C797S mutant (BaF3 LR/CS); format: cell-based; conditions: Ba/F3 EGFR; BaF3_EGFR LR/CS cells, ~72 hours, CellTiter-Glo; read-out: BaF3 LR/CS IC50

Chain of recombinant human EGFR L858R/C797S double mutant protein (P00533 25-1210 C797S/L858R): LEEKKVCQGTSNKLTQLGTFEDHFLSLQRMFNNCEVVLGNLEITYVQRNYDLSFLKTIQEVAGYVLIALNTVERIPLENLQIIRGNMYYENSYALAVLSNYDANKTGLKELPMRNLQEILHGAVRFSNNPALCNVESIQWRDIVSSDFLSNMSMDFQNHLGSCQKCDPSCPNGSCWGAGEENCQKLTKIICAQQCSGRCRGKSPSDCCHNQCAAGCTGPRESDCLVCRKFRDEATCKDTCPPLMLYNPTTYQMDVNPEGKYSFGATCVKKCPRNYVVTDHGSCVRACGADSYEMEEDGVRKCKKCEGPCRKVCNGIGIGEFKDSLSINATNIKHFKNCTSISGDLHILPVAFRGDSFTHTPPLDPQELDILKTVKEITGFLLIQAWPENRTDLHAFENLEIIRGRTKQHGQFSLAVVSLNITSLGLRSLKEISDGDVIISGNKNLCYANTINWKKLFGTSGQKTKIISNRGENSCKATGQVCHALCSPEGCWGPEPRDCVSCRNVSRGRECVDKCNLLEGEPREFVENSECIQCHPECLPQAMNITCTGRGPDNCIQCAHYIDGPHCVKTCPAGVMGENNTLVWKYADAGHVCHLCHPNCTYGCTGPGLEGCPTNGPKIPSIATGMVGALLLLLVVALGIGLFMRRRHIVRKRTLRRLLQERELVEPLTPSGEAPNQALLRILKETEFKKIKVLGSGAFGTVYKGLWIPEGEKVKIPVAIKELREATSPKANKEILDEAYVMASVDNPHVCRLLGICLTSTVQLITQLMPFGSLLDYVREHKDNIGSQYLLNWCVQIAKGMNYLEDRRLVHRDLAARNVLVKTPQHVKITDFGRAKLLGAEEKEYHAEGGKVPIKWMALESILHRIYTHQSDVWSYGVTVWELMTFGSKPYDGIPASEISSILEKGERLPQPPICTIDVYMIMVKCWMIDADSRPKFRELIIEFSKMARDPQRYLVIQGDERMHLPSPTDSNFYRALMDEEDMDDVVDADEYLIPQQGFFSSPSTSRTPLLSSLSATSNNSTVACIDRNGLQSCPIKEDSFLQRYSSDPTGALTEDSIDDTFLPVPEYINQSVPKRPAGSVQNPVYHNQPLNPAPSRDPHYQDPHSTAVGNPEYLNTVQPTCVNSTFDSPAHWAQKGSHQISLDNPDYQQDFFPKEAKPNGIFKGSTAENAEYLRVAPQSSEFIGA
Chain of recombinant human EGFR exon 19 deletion/C797S double mutant protein (P00533 other isoform, or with tags, fused parts or gaps C797S/del 1-668/del 746-750 limits assumed): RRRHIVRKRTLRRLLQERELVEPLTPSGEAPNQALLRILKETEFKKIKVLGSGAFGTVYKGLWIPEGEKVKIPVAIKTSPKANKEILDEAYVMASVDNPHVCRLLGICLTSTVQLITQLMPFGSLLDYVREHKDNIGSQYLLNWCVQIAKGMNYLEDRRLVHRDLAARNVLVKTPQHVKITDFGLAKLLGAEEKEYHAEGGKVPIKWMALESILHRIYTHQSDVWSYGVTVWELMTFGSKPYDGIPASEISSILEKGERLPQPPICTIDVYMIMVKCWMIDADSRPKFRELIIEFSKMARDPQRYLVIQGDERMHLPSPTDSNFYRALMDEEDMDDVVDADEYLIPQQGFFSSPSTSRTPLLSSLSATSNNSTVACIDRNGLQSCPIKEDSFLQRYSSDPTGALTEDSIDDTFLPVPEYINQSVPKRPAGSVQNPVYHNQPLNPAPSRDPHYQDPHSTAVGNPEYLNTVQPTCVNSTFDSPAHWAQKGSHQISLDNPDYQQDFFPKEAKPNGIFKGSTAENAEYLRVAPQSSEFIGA

CN(C)S(=O)(=O)CCCn1cc(-c2ncnc3oc(-c4ccccc4)cc23)c(-c2ccc(F)cc2)n1 [Example 61, 3-[3-(4-Fluorophenyl)-4-(6-phenylfuro[2,3-d]pyrimidin-4-yl)-1H-pyrazol-1-yl]-N,N-dimethylpropane-1-sulfonamide]
IC50 (BaF3_EGFR d19/CS cells): 24.4 nM
IC50 (Ba/F3_EGFR WT cells): 1140 nM
IC50 [1]: 0.601 nM
IC50 [2]: 0.907 nM
IC50 (BaF3_EGFR LR/CS cells): 73.2 nM

CC(O)CCn1cc(-c2ncnc3oc(-c4ccccc4)cc23)c(-c2ccc(F)cc2)n1 (stereo not drawn) [Example 62, 4-[3-(4-Fluorophenyl)-4-(6-phenylfuro[2,3-d]pyrimidin-4-yl)-1H-pyrazol-1-yl]butan-2-ol]
IC50 (BaF3_EGFR d19/CS cells): 30.1 nM
IC50 (Ba/F3_EGFR WT cells): 1150 nM
IC50 [1]: 0.527 nM
IC50 [2]: 0.703 nM
IC50 (BaF3_EGFR LR/CS cells): 45 nM

Fc1ccc(-c2nn(CCC3COC3)cc2-c2ncnc3oc(-c4ccccc4)cc23)cc1 [Example 64, 4-{3-(4-Fluorophenyl)-1-[2-(oxetan-3-yl)ethyl]-1H-pyrazol-4-yl}-6-phenylfuro[2,3-d]pyrimidine]
IC50 (BaF3_EGFR d19/CS cells): 62.9 nM
IC50 (Ba/F3_EGFR WT cells): 1460 nM
IC50 [1]: 0.779 nM
IC50 [2]: 1.1 nM
IC50 (BaF3_EGFR LR/CS cells): 99.1 nM

NS(=O)(=O)CCCn1cc(-c2ncnc3oc(-c4ccccc4)cc23)c(-c2ccc(F)cc2)n1 [Example 65, 3-[3-(4-Fluorophenyl)-4-(6-phenylfuro[2,3-d]pyrimidin-4-yl)-1H-pyrazol-1-yl]propane-1-sulfonamide]
IC50 (BaF3_EGFR d19/CS cells): 19.9 nM
IC50 (Ba/F3_EGFR WT cells): 589 nM
IC50 [1]: 0.263 nM
IC50 [2]: 0.341 nM
IC50 (BaF3_EGFR LR/CS cells): 24.3 nM

CC(C)(O)CCc1nc(-c2ccc(F)cc2)c(-c2ncnc3sc(-c4ccccc4)cc23)o1 [Example 66, 4-[4-(4-fluorophenyl)-5-(6-phenylthieno[2,3-d]pyrimidin-4-yl)-1,3-oxazol-2-yl]-2-methylbutan-2-ol]
IC50 (BaF3_EGFR d19/CS cells): 1290 nM
IC50 (Ba/F3_EGFR WT cells): > 20000 nM
IC50 [1]: 14.5 nM
IC50 [2]: 8.12 nM
IC50 (BaF3_EGFR LR/CS cells): 2690 nM

CC(C)(O)CCn1cc(-c2ncnc3sc(-c4ccccc4)cc23)c(-c2ccc(F)cc2)n1 [Example 67, 4-[3-(4-fluorophenyl)-4-(6-phenylthieno[2,3-d]pyrimidin-4-yl)-1H-pyrazol-1-yl]-2-methylbutan-2-ol]
IC50 (BaF3_EGFR d19/CS cells): 1050 nM
IC50 (Ba/F3_EGFR WT cells): 8040 nM
IC50 [1]: 15.6 nM
IC50 [2]: 18.6 nM
IC50 (BaF3_EGFR LR/CS cells): 1630 nM

Fc1ccc(-c2nn(CC3CCO3)cc2-c2ncnc3oc(-c4ccccc4)cc23)cc1 (stereo not drawn) [Example 69, 4-{3-(4-Fluorophenyl)-1-[(oxetan-2-yl)methyl]-1H-pyrazol-4-yl}-6-phenylfuro[2,3-d]pyrimidine]
IC50 (BaF3_EGFR d19/CS cells): 68.6 nM
IC50 (Ba/F3_EGFR WT cells): 2340 nM
IC50 [1]: 0.452 nM
IC50 [2]: 0.378 nM
IC50 (BaF3_EGFR LR/CS cells): 40.2 nM

N#CCCn1cc(-c2ncnc3oc(-c4ccccc4)cc23)c(-c2ccc(F)cc2)n1 [Example 70, 3-[3-(4-Fluorophenyl)-4-(6-phenylfuro[2,3-d]pyrimidin-4-yl)-1H-pyrazol-1-yl]propanenitrile]
IC50 (BaF3_EGFR d19/CS cells): 11.5 nM
IC50 (Ba/F3_EGFR WT cells): 681 nM
IC50 [1]: 0.328 nM
IC50 [2]: 0.346 nM
IC50 (BaF3_EGFR LR/CS cells): 7.9 nM

FCCCCn1cc(-c2ncnc3oc(-c4ccccc4)cc23)c(-c2ccc(F)cc2)n1 [Example 71, 4-[1-(4-fluorobutyl)-3-(4-fluorophenyl)-1H-pyrazol-4-yl]-6-phenylfuro[2,3-d]pyrimidine]
IC50 (BaF3_EGFR d19/CS cells): 151 nM
IC50 (Ba/F3_EGFR WT cells): 2620 nM
IC50 [1]: 1.25 nM
IC50 [2]: 1.62 nM
IC50 (BaF3_EGFR LR/CS cells): 84.1 nM

OCCCc1nc(-c2ccc(F)cc2)c(-c2ncnc3sc(-c4ccccc4)cc23)o1 [Example 74, 3-[4-(4-fluorophenyl)-5-(6-phenylthieno[2,3-d]pyrimidin-4-yl)-1,3-oxazol-2-yl]propan-1-ol]
IC50 (BaF3_EGFR d19/CS cells): 920 nM
IC50 (Ba/F3_EGFR WT cells): > 20000 nM
IC50 [1]: 9.37 nM
IC50 [2]: 2.9 nM
IC50 (BaF3_EGFR LR/CS cells): 267 nM

COC1(Cn2cc(-c3ncnc4oc(-c5ccccc5)cc34)c(-c3ccc(F)cc3)n2)COC1 [Example 75, 4-{3-(4-fluorophenyl)-1-[(3-methoxyoxetan-3-yl)methyl]-1H-pyrazol-4-yl}-6-phenylfuro[2,3-d]pyrimidine]
IC50 (BaF3_EGFR d19/CS cells): 150 nM
IC50 (Ba/F3_EGFR WT cells): 5920 nM
IC50 [1]: 1.01 nM
IC50 [2]: 1.49 nM
IC50 (BaF3_EGFR LR/CS cells): 131 nM

Fc1ccc(-c2nn(C3CCOCC3)cc2-c2ncnc3oc(-c4ccccc4)cc23)cc1 [Example 76, 4-[3-(4-Fluorophenyl)-1-(oxan-4-yl)-1H-pyrazol-4-yl]-6-phenylfuro[2,3-d]pyrimidine]
IC50 (BaF3_EGFR d19/CS cells): 31 nM
IC50 (Ba/F3_EGFR WT cells): 2020 nM
IC50 [1]: 0.94 nM
IC50 [2]: 0.7 nM
IC50 (BaF3_EGFR LR/CS cells): 45.5 nM
